Laboratory results as given in patent US20090318430A1, “MEDICAL USE OF CYCLIN DEPENDENT KINASES INHIBITORS” (ASTEX THERAPEUTICS LIMITED, priority 2006, published 2009).
Where a name gives a salt, the structure may show the parent alone.

Key:
[1] = molecular target: T1, Cdk5/p35 enzyme (Upstate) (Homo sapiens, UniProt Q00535); assay: Alternative CDK5 assay (DELFIA, biotinylated histone H1 peptide); assay type: biochemical; conditions: Cdk5/p35, ATP, 30 minutes at room temperature, TRF read-out
T1 construct: purchased Upstate
Description: In a 96-well polypropylene plate add 5 μl of 5× test compound (in 12.5% DMSO) per well. Prepare an assay mix of 2.5 μM biotinylated histone H1 peptide (Bachem), 2.5 mM DTT in 1× assay buffer (10× assay buffer contains 250 mM Tris-HCl pH7.5, 2.5 mM MgCl2, 0.025 Brij-35, 0.1 mg/ml BSA. Add 10 μl of assay mix per well. Prepare the Cdk5/p35 enzyme (Upstate) at 0.625 nM in 1× assay buffer with 37.5 μM ATP on ice. Add 10 μl per well to start the reaction, seal with sealing film and incubate for 30 minutes at room temperature on a plate shaker. Stop the reaction by the addition of 100 μl stop buffer (1× Blocker BSA-Pierce, 0.05% surfact-AMPS-20, 100 mM EDTA). Shake plate for 1 minute. Transfer 100 μl of the stopped reaction to a black Neutravidin coated plate. Shake at room temperature for 30 minutes. Wash plate 5× with 200 μl TBS-Tween. Add 100 μl of anti-phospho cdk1-substrate antibody (Calbiochem) at 1:1500 in 1×DELFIA assay buffer (Perkin Elmer) to each well. Shake for 1 hour at room temperature. Wash plate 5× with 200 μl TBS-Tween. Add 100 μl of Eu-labelled anti-rabbit IgG at 1:300 in 1×DELFIA assay buffer per well. Shake for 1 hour at room temperature. Wash plate 5× with 200 μl TBS-Tween. Add 100 μl DELFIA enhancement solution (Perkin Elmer) per well and incubate 5 minutes on a plate shaker at <900 rpm. Read using TRF enabled fluorimeter at 335ex/620em.

[2] = Vapour sorption/desorption analysis; assay type: physicochemical
Description: Crystals of 4-(2,6-dichlorobenzoylamino)-1H-pyrazole-3-carboxylic acid (1-methanesulphonyl-piperidin-4-yl)-amide prepared by the recrystallisation method of Example 11 Step 8 were subjected to vapour sorption/desorption analysis in order to test for the propensity of this sample to form a hydrated state.
Approximately 20 mg of sample was placed into a wire-mesh vapour sorption balance pan and loaded into an ‘IgaSorp’ vapour sorption balance (Hiden Analytical Instruments) held at 25+/−0.1° C. The sample was then dried by maintaining a 0% humidity environment (using mass flow control apparatus) until no further weight change was recorded. Subsequently, the sample was then subjected to a ramping profile from 0-90% relative humidity (% RH) at 10% RH increments, maintaining the sample at each step until equilibration had been attained (99.5% step completion).
Upon reaching equilibration, the % RH within the apparatus was ramped to the next step and the equilibration procedure repeated. After completion of the sorption cycle, the sample was then dried using the same procedure. The weight change during the sorption/desorption cycles was then monitored, allowing for the hygroscopic nature of the sample to be determined.

[3] = system: rat model of focal cerebral ischemia; conditions: cited from earlier work
[4] = Solubility of the acid addition salt; assay type: physicochemical
[5] = system: jck and cpk mouse models of PKD; conditions: cited from earlier work
[6] = system: formalin-induced nociceptive responses in rats; conditions: cited from earlier work
polycystic cpk mice = conditions: cited from earlier work

T1 sequence (Q00535 whole entry): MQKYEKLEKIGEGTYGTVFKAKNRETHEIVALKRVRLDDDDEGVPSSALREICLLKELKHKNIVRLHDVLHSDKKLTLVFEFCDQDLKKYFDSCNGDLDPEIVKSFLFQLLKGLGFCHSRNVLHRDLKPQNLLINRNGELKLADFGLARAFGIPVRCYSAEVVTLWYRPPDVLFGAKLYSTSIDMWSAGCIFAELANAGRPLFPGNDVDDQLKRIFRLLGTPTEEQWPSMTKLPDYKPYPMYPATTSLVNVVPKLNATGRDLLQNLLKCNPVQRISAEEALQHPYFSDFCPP
T1 sequence (Q15078 whole entry partner): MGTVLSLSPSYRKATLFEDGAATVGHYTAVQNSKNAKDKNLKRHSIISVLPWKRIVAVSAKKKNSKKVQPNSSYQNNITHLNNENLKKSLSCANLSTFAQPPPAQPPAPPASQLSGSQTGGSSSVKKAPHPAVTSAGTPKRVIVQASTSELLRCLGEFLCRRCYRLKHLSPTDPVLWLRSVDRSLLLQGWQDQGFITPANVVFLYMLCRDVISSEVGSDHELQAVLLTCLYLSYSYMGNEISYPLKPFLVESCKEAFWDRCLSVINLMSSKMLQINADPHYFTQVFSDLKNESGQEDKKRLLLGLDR

With `CS(=O)(=O)N1CCC(NC(=O)c2n[nH]cc2NC(=O)c2c(Cl)cccc2Cl)CC1` [Example 12, 4-(2,6-dichloro-benzoylamino)-1H-pyrazole-3-carboxylic acid (1-methanesulphonyl-piperidin-4-yl)-amide] the IC50 [1] was under 100 nM, the “weight increase upon equilibration at 90% RH” value ([2]; crystals, 25 °C, stepwise 0-90% relative humidity) was 0.24% and the “hygroscopicity / hydrate formation” value ([2]; storage in elevated humidity conditions) was “physically stable with regard to hygroscopicity”.

For `CN1CC[C@H](c2c(O)cc(O)c3c(=O)cc(-c4ccccc4Cl)oc23)[C@H](O)C1` [flavopiridol], the neuronal death [3] is listed as “significantly reduce neuronal death”.

In the case of `O=C(NC1CCNCC1)c1n[nH]cc1NC(=O)c1c(Cl)cccc1Cl` [methanesulphonic acid salt, 4-(2,6-dichlorobenzoylamino)-1H-pyrazole-3-carboxylic acid piperidin-4-ylamide methanesulphonate], the solubility ([4]; pH 4.6, aqueous buffer, buffer formed from acetic acid and sodium acetate, solution pH approximately 4.6) is reported as about 35 mg/mL and the water solubility ([4]; water, qualitative statement) is reported as “excellent water solubility”.

For `CC[C@H](CO)Nc1nc(NCc2ccccc2)c2ncn(C(C)C)c2n1` [roscovitine], the cystic disease [5] is listed as “effective arrest of cystic disease” and the formalin-induced nociceptive responses [6] is listed as “attenuate the formalin-induced nociceptive responses”.

In the case of `CC(=O)O[C@H]1C(=O)[C@@]2(C)[C@H]([C@H](OC(=O)c3ccccc3)[C@]3(O)C[C@H](OC(=O)[C@H](O)[C@@H](NC(=O)c4ccccc4)c4ccccc4)C(C)=C1C3(C)C)[C@]1(OC(C)=O)CO[C@@H]1C[C@@H]2O` [taxol], the “progression of PKD and survival” value (polycystic cpk mice) is given as “inhibit the progression of PKD and prolongs the survival”.
